Experimental data taken from a melting point compilation (Tetko et al.; mined from patent text by program, amines drawn as free bases though some values may be those of a salt).

Point of comparison: `CC(C)(C)C(=O)Nc1ncccc1CNC1CCN(Cc2ccccc2)CC1`, melting point 138 °C. Against it:
- CC(C)(C)c1cc(NC(=O)C=Cc2ccccc2)cc(C(C)(C)C)c1O — higher, 211 to 214 °C
- CC(C)(C)NCC(O)COc1cccc2[nH]c(=S)[nH]c12 (stereo not given) — higher, 214 to 216 °C
- CSc1nnc(-c2ccccc2CS(N)(=O)=O)o1 — not separable, 138 to 140 °C
- COC(=O)CCC/C=C\[C@@H]1C[C@@H](NS(=O)(=O)c2ccc(Cl)cc2)CN1S(=O)(=O)c1ccc(Cl)cc1 — lower, 95 to 96 °C
- CCOc1ccc2c(c1)C(N)(c1ccccc1Cl)C(=O)N2 (stereo not given) — higher, 173 to 175 °C
- CCNC1CCN(c2c(F)cc3c(=O)c(C(=O)O)cn(C4CC4)c3c2F)C1 (stereo not given) — higher, 236 to 238 °C
- CC(=O)Nc1ccccc1N1CCc2ccccc21 — lower, 125 to 128 °C
- CCCCCCCCCCCCc1cc2cc(C(=O)OCCCC)ccc2[nH]1 — lower, 74 to 76 °C
- CCc1nc2c(-c3cc4ccoc4cc3C)ncnc2n1C(C1CC1)C1CC1 — higher, 139 to 141 °C
- O=C(O)C(F)(CCC(F)(F)C(F)(F)C(F)(F)C(F)(F)F)C(F)(F)F (stereo not given) — lower, 45 to 46 °C
- Cc1sc(-c2ccccc2)nc1CN(C)[C@H]1CC[C@H](c2ccc3[nH]c(=O)oc3c2)CC1 — higher, 246 to 248 °C
- CCn1nc2c(N)nc3ccccc3c2c1CC(C)(C)N — higher, 234 to 235 °C
- CCCc1cc(C=CC(=O)c2ccc(O)cc2)c(OC)cc1O — lower, 126 to 128 °C
- COC(=O)c1cc(-c2ccncc2)[nH]c1-c1ccncc1 — higher, > 270 °C
- CN(C)CC=C(c1ccc(-c2ccccc2)cc1)c1ccc(-c2ccccc2)cc1 — lower, 94 to 95 °C
- CNC(=O)N1CCC(Oc2c(F)c(F)c(F)c(F)c2F)CC1 — lower, 107 to 110 °C
- Cn1c(-c2ccc(C(=O)O)cc2)ccc1-c1ccc(C(F)(F)F)cc1 — higher, 260 to 261 °C
- N#Cc1nn(-c2c(Cl)cc(C(F)(F)F)cc2Cl)c(N2CCCCC2)c1S(=O)(=O)C(F)(F)F — higher, 153 to 155 °C
- O=c1c2ccc(Cl)cc2[nH]c2c(O)nn(Cc3ccco3)c(=O)c12 — higher, > 265 °C
- Cc1ccc(-c2ccc3c(c2)C=C(C(=O)Nc2ccc(C4=NCCN4)cc2)CCO3)cc1 — higher, 282 to 283 °C
- Cc1ccccc1C(=O)CN1C(=O)C(NC(=O)Nc2cccc(CC(O)=S)c2)CN(C(=O)C(C)(C)C)c2ccccc21 (stereo not given) — lower, 127 to 130 °C
- CNCCc1cccc(N2C(=O)N(c3c(Cl)cccc3Cl)Cc3cnc(Nc4ccccc4)nc32)c1 — lower, 122 to 125 °C
- CC(C)(C)c1ccc(NC(=O)NCc2ccc3c(c2)CN(C2CCC(=O)NC2=O)C3=O)cc1 (stereo not given) — higher, 254 to 256 °C
- C#Cc1cc(Cl)cc2c1OC(C(F)(F)F)C(C(=O)O)=C2 (stereo not given) — higher, 186 to 189 °C
- CCOCOC1CCC2(C)C(=CCC3C2CCC2(C)C3CC3OC4(CCC(C)CO4)C(C)C32)C1 (stereo not given) — lower, 125 to 127 °C
- O=C(NNc1ccccc1)c1ccc(F)cc1F — higher, 171 to 173 °C
- CCCc1c(OCC(O)COc2ccc3c(C)c(CC(=O)O)c(=O)oc3c2)ccc(C(C)=O)c1O (stereo not given) — lower, 130 °C
- CSc1nnc(SCc2ccc(Cl)cc2)s1 — lower, 77 to 78 °C
- COC(=O)CCc1cc2cc(F)c(Cl)cc2n1S(=O)(=O)c1ccccc1 — lower, 127 to 130 °C
- O=C(OCCOc1ccc(OCCO)cc1)c1ccc(O)c(Cl)c1 — lower, 87 to 88 °C
- COc1cc2c(cc1OC)C(c1cc(N)ccc1Cl)=NN=C(C)C2 — higher, 188 to 190 °C
- ClCCCCSc1ccncc1 — lower, 80 to 85 °C
- O=c1[nH]c2ccncc2c(=O)o1 — higher, 180 °C
- COc1ccc(-c2cnc(-c3ccncc3)o2)cc1 — lower, 105 to 107 °C
- Cn1cc(-c2cccc(N3Cc4cc(C(C)(C)C)ccc4C3=O)c2CO)nc(Nc2ccc(N3CCOCC3)cc2)c1=O — higher, 225 to 227 °C
- CCOC(=O)C1=C(COCCn2c(C)nc(C)c2C)NC2=C(C(=O)OC2)C1c1ccccc1Cl (stereo not given) — higher, 215 to 217 °C
- O=C(Cl)c1cnoc1-c1ccc(Cl)cc1Cl — lower, 46 to 50 °C
- CC(C)(CNC(=O)Cc1ccccc1)NCC(O)c1cc(Cl)c(N)c(Cl)c1 (stereo not given) — lower, 96 to 98 °C
- CCOC(=O)C1=C(NC(=O)Nc2cc(C(=O)OC(C)C)c(Br)cc2F)CCC1 — higher, 150 to 154 °C
- O=C1C(c2ccccc2)=CC2CCCCCC12 (stereo not given) — higher, 218 °C
- S=c1c2ccc(Cl)cc2nc2n1CCCCC2 — lower, 99 to 101 °C
- CCCCCCCCCCc1ccc2cc(/C=C/c3cc4ccc(CCCCCCCCCC)cc4cc3SC)c(SC)cc2c1 — lower, 117 to 118 °C
- COC(=O)NC1=NC(c2ccc(I)cc2)CN1 (stereo not given) — higher, 229 to 230 °C
- N#Cc1cccc(C2=Nc3ccc(C#CC4=CCNCC4)cc3NC(=O)C2)c1 — higher, 184 °C
- CN(C)C=Nc1c(F)ccc(F)c1C#N — lower, 56 to 60 °C
- COc1ccc(OC(=O)c2c(Cl)cccc2Cl)cc1OC1CCCC1 — lower, 100 to 101 °C
- O=c1cc(COC2CCCCO2)occ1O (stereo not given) — lower, 94 °C
- CS(=O)(=O)c1ccc(-c2cc(C(F)(F)F)nn2-c2ccc(CO)cc2)cc1 — lower, 129 to 133 °C
- Cc1cccc(-c2nc3ccccn3c2-c2ccnc(-c3ccc(NS(=O)(=O)C(F)(F)F)cc3)c2)n1 — lower, 135 °C
- CCC(=O)[C@@H](NC(=O)OCc1ccccc1)C(C)C — lower, 49 to 50 °C
- COC(=O)c1nn(-c2ccc(Cl)cc2Cl)c(-c2ccc(Cl)cc2)c1CF — lower, 114 °C
- N#CCc1ccccc1CCc1ccc(Br)cc1 — lower, 59 to 60.5 °C
- O=C(Nc1cccc2c1C(=O)c1c-2n[nH]c1-c1ccc(C(=O)N2CCC[C@@H]2CN2CCCC2)s1)NN1CCOCC1 — higher, 166 to 167 °C
- N#CC(C#N)=Cc1ccc(OS(=O)(=O)c2cc(Cl)c(Cl)cc2Cl)cc1 — higher, 165 to 166 °C
- CCN(CC)CCC1CCN(CCNC(=O)N2c3ccccc3C(=O)Nc3cccnc32)CC1 — higher, 170 to 172 °C
- CC(c1ccc(OCc2ccc(Cl)cc2Cl)cc1)n1ccnc1 (stereo not given) — lower, 103 to 106 °C
- Brc1ccc2nc(NC3=NCCN3)[nH]c2c1 — higher, 264 to 266 °C
- O=C(Nc1ccc(CCl)cc1)C1=Cc2cc(-c3ccccc3)ccc2CC1 — higher, 176 to 177 °C
- Cn1ccnc1Sc1ccc(Nc2c(C#N)cnc3cc(/C=C/CN4CCCC4)ccc23)cc1Cl — higher, 182 to 190 °C
- CCC1CN(Cc2ccccc2)C(=O)C(=C2SC=CS2)C1=O (stereo not given) — higher, 140 to 141 °C
- c1ccc(C(CC2CC3CCN2CC3)c2ccccc2)cc1 (stereo not given) — lower, 87.5 to 89 °C
- Cc1cc(O)ccc1-c1cc2ccccc2[nH]1 — lower, 106 °C
- O=C(c1ccc2ccccc2n1)N1CCN=C1Nc1c(Cl)cccc1Cl — higher, 194 to 196 °C
- NC(=O)C1(N2CCCCC2)CCN(Cc2ccccc2)CC1 — higher, 150 to 160 °C
- CCCc1nc2c(N)nc3ccccc3c2n1CC(C)(C)CC(C)=NOC — higher, 196 to 198 °C
- Cc1cc(F)ccc1-c1nc(NC(C)(CO)CO)nc2c1ccc(=O)n2-c1c(F)cccc1F — higher, 158 to 160 °C
- O=C(Nc1ccc(C(=O)N2Cc3cccn3Cc3ccccc32)cc1)c1ccccc1F — higher, 257 to 260 °C
- Nc1ccc(Cl)c(O)c1 — lower, 115 to 117 °C
- Cc1cc(CC(=O)O)c(CC(C)N)cc1C (stereo not given) — higher, 222 to 223 °C
- O=C(Nc1ccc([N+](=O)[O-])cc1)C(=O)N1CCC(Cc2ccccc2)CC1 — higher, 162 to 165 °C
- Oc1ccc2c(-c3ccccc3F)noc2c1I — higher, 212 to 214 °C
- Cc1ccc(S(=O)(=O)NC(=O)Nc2nc(-c3ccccc3)c(-c3ccc(=O)n(C(C)C)n3)s2)cc1 — higher, 172 to 174 °C
- COC(=O)c1cc(=O)c2cc(F)ccc2o1 — not separable, 138 to 139 °C
- O=C(NCCO)c1cccc(-c2cccc3nn(Cc4ccccc4F)cc23)c1 — higher, 159 to 160 °C
- O=C1c2ccccc2C(=O)N1CC1CC1c1cccc2nnsc12 (stereo not given) — lower, 123 to 125 °C
- CCCCOC(=O)C(CC(C)C)NC(=O)c1cc([N+](=O)[O-])cc([N+](=O)[O-])c1 (stereo not given) — lower, 95 to 98 °C
- OCC1CC(O)C(n2c(Br)nc3cc(Cl)c(Cl)cc32)C1 (stereo not given) — higher, 218 to 220 °C
- O=S(=O)(NCCCCOc1ccc(-n2ccnc2)cc1)c1cccc2cccnc12 — lower, 131 to 133 °C
- CCC1=Nc2ccccc2CC(c2cccnc2)N1C (stereo not given) — lower, 72 to 75 °C
- CC(=O)c1c(-c2ccncc2)sc(Cl)c1C — lower, 60 to 61 °C
- Nc1ccc(F)c(Br)c1F — lower, 77 to 78 °C
- Nc1ccc2c(c1)C(=O)N(CCO)C2=O — higher, 171 to 173 °C
- Cc1cccc(NC(=O)OC(C)(C)C)c1COc1cccn2c(C)c(C)nc12 — lower, 128 to 131 °C
- CC1(C)OC(=S)Nc2ccc(-c3ccc(F)c(F)c3)cc21 — higher, 209 to 211 °C
- Oc1ccc(Oc2cc3ccc(Cl)cc3cn2)cc1 — higher, 190 °C
- CC(C)C[C@H](NC(=O)OCc1ccc(Cl)cc1)C(=O)N[C@@H](Cc1ccccc1)C(=O)CSCc1ccco1 — lower, 123 to 124 °C
- Cc1c(Cc2cccc(C(F)(F)F)c2)oc2c(-c3cccc(C(=O)NCCS(C)=O)c3)cccc12 (stereo not given) — higher, 146 to 147 °C
- COc1cc(S(C)=O)c(C)cc1OCC(C)=O (stereo not given) — lower, 104 to 106 °C
- CC(C)(C#N)CCCCOc1cc(-c2ccccc2)cc(-c2ccccc2)n1 — lower, 71 °C
- Cc1occc1S(=O)(=O)C(C)(Cc1ccc(OCCN2CCCCC2)cc1)C(=O)NO (stereo not given) — lower, 115 to 117 °C
- CCC(=O)n1c(=O)[nH]c(=O)n1C(=O)CC — higher, 208 °C
- CCOC(=O)c1cc(Cl)nc(SCc2ccc3ccccc3c2)n1 — lower, 95 to 96 °C
- CCc1nc(-c2ccc(F)cc2)c(-c2ccc(S(C)(=O)=O)cc2)s1 — higher, 156 to 157 °C
- COc1cc2c(cc1OC)C(CN1CCN(c3ccc(F)cc3)CC1)OCCC2 (stereo not given) — lower, 135 to 136 °C
- CN(C)C(=O)/C=C/c1cnc2c(NC(=O)c3c(Cl)cccc3Cl)cccc2c1 — higher, 241 to 242 °C
- CCCc1[nH]c2cc(C(N)=O)ccc2c1C(=O)C1CCC1 — higher, 253 to 255 °C
- O=CNC(O)C(Cl)(Cl)CCl (stereo not given) — lower, 105 to 109 °C
- CC(C)c1nn(-c2ccc(C(F)(F)F)cn2)cc1CCCCOc1ccc(CCC(=O)O)cc1 — higher, 144 to 145 °C
- Nc1c(F)c(F)c(F)c2c1c(=O)c(C(=O)O)cn2C1CC1 — higher, 269 to 271 °C
